The values below are quoted from earlier work in patent publication US20060240399A1, “Long-term shelf preservation of cells and multicellular specimens by vitrification” (priority 1999, published 2006).

The series has as its system Drosophila melanogaster embryos. The conditions noted are these: co-solute added to vitrification solution.

In the case of `N[C@@H](CCC(=O)O)C(=O)O` [glutamic acid], the “effect on ethylene glycol permeation inside embryos” value (“effect” for short) is “significantly diminished”.
As for `NCC(=O)O` [glycine], the “effect” value is listed as “significantly diminished”.
For the molecule `OC[C@@H](O)[C@@H](O)[C@H](O)[C@@H](O)CO` [sorbitol], the “effect” value is on record as “significantly diminished”.
